Entries after “also recorded” stand apart in the source; their conditions may differ. Like-named read-outs stand apart in the source and are kept apart here. Marks after values point to notes of the source that are not given here.
What was measured:
D. immitis microfilariae = tested on: D. immitis microfilariae; parameters: species or system Dirofilaria immitis; conditions: in vivo
[1] = tested on: D. immitis (LOE isolate case 5); parameters: species or system Dirofilaria immitis; conditions: in vivo
[2] = tested on: D. immitis microfilariae (LOE isolate case 4); conditions: in vivo
[3] = tested on: D. immitis mf from dog Jd2009; assay type: cell-based, Dirofilaria immitis
[4] = tested on: D. immitis Jd2009-2 isolate; parameters: species or system Dirofilaria immitis; conditions: in vivo
[5] = tested on: adult heartworms (D. immitis); parameters: species or system Dirofilaria immitis; conditions: in vivo
[6] = tested on: D. immitis (LOE isolate case 2); parameters: species or system Dirofilaria immitis; conditions: in vivo

For CC[C@H](C)[C@H]1O[C@]2(CC[C@@H]1C)C[C@@H]1C[C@@H](C/C=C(\C)[C@@H](O[C@H]3C[C@H](OC)[C@@H](O[C@H]4C[C@H](OC)[C@@H](O)[C@H](C)O4)[C@H](C)O3)[C@@H](C)/C=C/C=C3\CO[C@@H]4[C@H](O)C(C)=C[C@@H](C(=O)O1)[C@]34O)O2 [IVM, ivermectin], which “Knott's test result” value (D. immitis microfilariae) is on record?
The value was “Knott's test +ve^a”.

What about the Microfilaremic status (D. immitis microfilariae) of the same molecule?
The Microfilaremic status was “remained continually microfilaremic; also recorded: still microfilaremic”.

What about the “Microfilariae concentration in blood” value (D. immitis microfilariae; po) of the same molecule?
Its value is ≥100^b mf/ml.

What about the “mf status during weekly dosing” value [1] of the same molecule?
Its value is “remained positive for mf”.

And the “Knott's test” value [2]?
Its value is “again positive”.

What about the “Knott's tests” value [2] of the same molecule?
The value was “both positive”.

And the “Sensitivity of mf to drug” value [3]?
The value was “significantly less sensitive”.

CO[C@H]1C[C@H](O[C@@H]2/C(C)=C/C[C@@H]3C[C@@H](C[C@]4(CC[C@H](C)[C@@H](C5CCCCC5)O4)O3)OC(=O)[C@@H]3C=C(C)/C(=N/O)[C@H]4OC/C(=C\C=C\[C@@H]2C)[C@]43O)O[C@@H](C)[C@@H]1O [SEL, selamectin] was tested. Which “Outcome of monthly chemoprophylaxis as recommended” value [4] did it give?
The value was “at least one dog in groups of four to six dogs on these heartworm preventatives became infected”.

Which Blood smear [2] does the source give for CCN(CC)C(=O)N1CCN(C)CC1 [diethylcarbamazine] here?
Its Blood smear is “no mf”.

What about the “Side effects of the treatment” value [2] of the same molecule?
The value was “No side effects”.

Which results are given for Cl.Cl.NCCS[As](SCCN)c1ccc(Nc2nc(N)nc(N)n2)cc1 [melarsomine dihydrochloride]?
D. immitis antigen test [5]: negative; Antigen test Name-result (+ve or −ve) ([5]; dihydrochloride): SNAP −ve^a; also recorded: DiroChek −ve^c; also recorded: PetChek −ve^a

What does the source list for milbemycin oxime [MO]?
Knott's test result (D. immitis microfilariae): Knott's test +ve^a; also recorded: Knott's test +ve^c; Microfilaremic status (D. immitis microfilariae): remained continually microfilaremic; Microfilariae concentration in blood (D. immitis microfilariae): ≥100^b mf/ml; Microfilariae in blood (D. immitis microfilariae): microfilariae were still present; Heartworm antigen test [1]: positive heartworm antigen test; Knott's test ([2]; po): positive; Heartworm antigen status [6]: heartworm antigen positive; Outcome of monthly chemoprophylaxis as recommended [4]: at least one dog in groups of four to six dogs on these heartworm preventatives became infected
